Test results reported in PMC3814616, “BRAF inhibitors suppress apoptosis through off-target inhibition of JNK signaling” (eLife, 2013).

Legend:
phospho-JNK = experiment: Immunohistochemistry of cSCC from Hairless mice; format: in vivo, mouse; conditions: p=0.046
Source text: (§1) We also used the Hairless mouse model of squamous cell carcinoma to assess whether PLX4720 would affect UV-driven tumor development. This is particularly relevant since it appears that UV exposure is an important initiating event in BRAFi-accelerated cSCC ([Su et al., 2012]). Unlike the DMBA/TPA model, in which lesions almost universally harbor Hras mutations ([Brown et al., 1990]), the Hairless model has a very low frequency of Ras mutation in papillomas and carcinomas ([van Kranen et al., 1995]), more similar to sporadic human cSCC. […]
(§2) Figure 5. […] (A and B) cDNA was reverse-transcribed from total RNA, PCR-amplified with the above primers (B) and analyzed by Sanger sequencing for mutations in both directions. No mutations in Hras, Kras, or Nras were detected in any of the papillomas (n = 5) or carcinomas (n = 3) isolated from PLX4720-treated mice. […]
(§3) Cutaneous squamous cell carcinomas biopsied from patients treated with or without BRAF-inhibitor were obtained either under clinical trials (Roche) or separate IRB approval (LAB08-0750). Staining levels were quantified by counting positively labeled cells and dividing by the total area of the tumor tissue within each sample. To measure tumor areas, all samples were photographed, tumor cells outlined, and total pixel numbers calculated using included image analysis tools in Adobe Photoshop and standardized to a hemacytometer to convert to mm^2. […]

cleaved caspase 3 = experiment: Immunohistochemistry of cSCC from Hairless mice; format: in vivo, mouse; conditions: p=0.019
Source text: as §1, §2, §3

[1] = system: phospho-JNK and phospho-p38; conditions: A375 and WM35, 24 hr
[2] = system: E1A and HRAS^G12V-transformed Craf−/− MEFs; experiment: Soft agar colony formation; format: cell-based, mouse; conditions: 0.2 μM and 1.0 μM, 4–6 weeks
[3] = 960 mg PO BID, ref Flaherty et al., 2010; cited from earlier work

Compound | phospho-JNK expression in tumors vs control-treated mice (phospho-JNK) | cleaved caspase 3 expression in tumors vs control-treated mice (cleaved caspase 3) | UV-mediated induction of phospho-p38 and phospho-JNK [1] | colony formation [2] | mean sustained serum levels [3] [µM]
CCCS(=O)(=O)Nc1ccc(F)c(C(=O)c2c[nH]c3ncc(Cl)cc23)c1F [PLX4720] | significant decreases | significant decreases | significant suppression | significant colony formation advantage | 
CCCS(=O)(=O)Nc1ccc(F)c(C(=O)c2c[nH]c3ncc(-c4ccc(Cl)cc4)cc23)c1F [vemurafenib] |  |  |  |  | 86
